In US6953786B2, “Compositions comprising plant-derived polyphenolic compounds and inhibitors of reactive oxygen species and methods of using thereof” (The Regents of the University of California, priority 2002, dated 2005):
Residues, ends and D or L forms follow the SMILES beside them. *: point of attachment. Cbz = O=C(OCc1ccccc1)*; CH2F = FC*

Columns and labels:
Mia PACA-2 cells [1] = assay: Mitochondrial membrane potential, DiOC6(3) retention; type: cell-based, human; conditions: Mia PACA-2, 72 hours, in the presence of serum (FIG. 11)
Description: In order to determine the effects polyphenolic compounds have on mitochondrial membrane potential, the retention of the dye 3,3′-dihexyloxacarbocyanine (DiOC6(3)) was measured as described by Pastorino J G, et al. (1998) J Biol Chem 273:7770-7775, which is herein incorporated by reference. BSp73AS cells were cultured for 6 hours in the absence (control) or presence of 0, 12, 24, 50, and 100 μM quercetin and trans-resveratrol. The cells were loaded with 1 μM DiOC6(3) during the last 30 minutes of treatment with a polyphenolic compound (or vehicle). The cells were then collected and pelleted by centrifugation. The supernatant was removed and the pellet was washed twice with PBS by alternate centrifugation and resuspension. The pellet was then lysed by addition of 1 ml of H2O and homogenized. The concentration of DiOC6(3) was read on a Perkin-Elmer LS-5 fluorescence spectrometer at 488 nm excitation and 500 nm emission. An aliquot of the cells was used for determining the DiOC6(3) fluorescence that was retained by the cells.
Mia PACA-2 cells were cultured for 72 hours in the presence of serum and trans-resveratrol or genistein in the presence or absence of DPI or Tiron. Mitochondrial membrane potential was measured as described above.

Mia PACA-2 cells [2] = assay: Oligonucleosomal DNA fragmentation by cell death ELISA; type: cell-based, human; conditions: Mia PACA-2, 72 hours, with serum
Description: Mia PACA-2 cells were cultured for 72 hours in the presence of serum with or without 15 μM DPI, 10 mM Tiron, 100 μM genistein, 100 μM or 50 μM trans-resveratrol, or a combination thereof. Oligonucleosomal DNA fragmentation was measured in cell lysates by cell death ELISA.
Annexin staining was conducted as described above. Cells were collected, washed with PBS, and centrifuged for 10 min at 200×g. DNA fragmentation was determined using Cell Death Detection ELISA Plus kit (Roche Molecular Biochemicals).
To determine the role of caspases in the effects of combinations of agents on apoptosis, the effects of caspase-3 activity (DEVDase activity) as well as the effect of the broad spectrum caspase inhibitor, Z-VAD, on apoptosis was measured. Specifically, Mia PACA-2 cells were cultured for 72 hours in the presence of serum with or without 100 μM Z-VAD, 15 μM DPI, 100 μM trans-resveratrol, 100 μM genistein, a combination of trans-resveratrol and DPI, and a combination of genistein and DPI. DEVDase activity was measured in whole cell lysates with a fluorimetric assay. DNA fragmentation was measured in cell lysates by cell death ELISA.
In particular, Mia PACA-2 cells were cultured for 72 hours in the presence of serum with or without 50 μM trans-resveratrol (RS), 15 μM DPI, a combination of DPI and trans-resveratrol (RS+DPI), 10 μM MG-132 alone and in combination with RS, DPI, and RS+DPI. Internucleosomal DNA fragmentation was measured in cell lysates by cell death ELISA.

Mia PACA-2 cells [3] = assay: Intracellular ROS (H2O2) by flow cytometry of DCF-labeled cells; type: cell-based, human; conditions: Mia PACA-2, 72 hours; DPI 15 μM
Description: To determine the effect of serum in cancer cells, the following assay was conducted. Mia PACA-2 pancreatic cancer cells were cultured for 72 hours in the absence and presence of serum (15% FBS) or 100 ng/ml insulin growth factor-1 (IGF-1). Dichloroflyorescein diocetate (DCF-DA) was used to label the cells. Intracellular H2O2 was measured by flow cytometry of DCF-labeled cells. Intracellular ROS was measured using oxidation-sensitive cell-permeable fluorescent probe, dichlorofluorescein diacetate (DCF-DA) to measure H2O2. See Royall J A, and Ischiropoulos H. (1993) Arch. Biochem. Biophys. 302:348-355. To measure ROS, cells were collected after incubation, washed with PBS, and incubated for 15 minutes with […] DCF-DA. Samples were analyzed by flow cytometry. The amount of DCF-DA fluorescence correlated with the amount of ROS in the cells To determine the effects of serum, IGF-1, polyphenols and inhibitors of ROS on ROS production in cancer cells, the following assay was conducted. Mia PACA-2 cells were cultured for 72 hours in the presence of serum or IGF-1 with or without antioxidants, intracellular superoxide scavenger tiron (10 mM) or NADPH oxidase inhibitor, diphenylene iodonium (DPI, 15 μM) and trans-resveratrol (100 μM), genistein (100 μM), or a combination of polyphenolic compounds and antioxidants. Intracellular H2O2 was measured by flow cytometry of DCF-labeled cells. Mia PACA-2 cells and BSp73AS cells were cultured in Dulbecco's Modified Eagle's Medium supplemented with 10% heat inactivated FBS, penicillin G (100 U/ml) and streptomycin ([…]) in a humidified atmosphere comprising 5% (v/v) CO2. When the cells were 90% confluent they were detached, washed with alternating centrifugation and resuspension, plated and incubated in the same media with or without FBS or IGF-1 and with or without a given polyphenolic compound and with or without a given ROS inhibitor.

NF-κB = NF-κB DNA binding activity (EMSA / gel shift); type: cell-based, human; conditions: Mia PACA-2, 72 hours, with serum; DPI 15 μM, trans-resveratrol 100 μM, genistein 100 μM, LY294002 50 μM
Description: In order to determine the role of activated NF-κB in the regulation of apoptosis caused by the polyphenolic compound, the following assay was conducted. BSp73AS cells were cultured for 6 hours and Mia PACA-2 cells were cultured in the absence of serum or growth factors for 24 hours in the absence (controls) or presence of rutin, quercetin, trans-resveratrol, or genistein, each at 100 μM and 20 μM proteosome inhibitor MG-132. Nuclear proteins were isolated and analyzed for NF-κB DNA binding activity with electrophoretic mobility shift assay (EMSA).
Specifically, aliquots of nuclear extracts with equal amount of protein, about 2 to about 10 μg, were mixed in 20 μl reactions with a buffer comprising 10 mM HEPES (pH 7.6), 50 mM KCl, 0.1 mM EDTA, 1 mM DTT, 10% (vol/vol) glycerol and 3 μg poly[d (I-C)]. After aliquots were equilibrated on ice for 5 minutes, binding reactions were stared by addition of 20-60,000 counts/min (20 fM) of ^32P-labeled DNA probes and allowed to proceed for 25-30 minutes at room temperature or up to 1 hour on ice. The oligonucleotide probe
containing the κB binding motif (underlined) was annealed to the complementary oligonucleotide with a 5′-G overhang and end-labeled using Klenow DNA polymerase I. The samples were electrophoresed at room temperature in 0.5×TBE buffer (1×TBE 89 mM Tris base, 89 mM boric acid and 2 mM EDTA) on nondenaturing 4.5% polyacrylamide gel at 200 V. Gels were dried and directly analyzed in the PhosphorImager (Molecular Dynamics, Sunnyvale, Calif.). The experiment was repeated twice.
To study the effects of combinations of DPI and polyphenolic compounds on serum-induced activation of NF-κB and protection from apoptosis, the following assay was conducted. Mia PACA-2 cells were cultured for 72 hours in the presence of serum with or without 100 μM trans-resveratrol, 15 μM DPI, a combination of trans-resveratrol, 100 μM genistein, or a combination of genistein and DPI. NF-κB binding activity was measured in nuclear extracts by gel shift assay as described above.
To determine the effects of LY29400 and DPI on NF-κB activation, Mia PACA-2 cells were cultured for 72 hours in the presence of serum and 15 μM DPI with or without 50 μM LY294002. NF-κB DNA binding activity was measured in nuclear extracts by gel shift assay as described above.

PARP [4] = assay: PARP proteolysis (Western blot); type: cell-based, human; conditions: Mia PACA-2, 24 hours, 50 μM inhibitor
Description: (§1) BSp73AS cells were cultured for 6 hours and Mia PACA-2 cells were cultured for 24 hours in the presence or absence of 100 μM of each rutin, quercetin or trans-resveratrol and with or without 50 μM of each […]. The cells were washed twice with PBS and lysed by incubating for 20 minutes at 4° C. in lysis buffer comprising 0.15 M NaCl, 50 mM Tris (pH 7.2), 1% deoxycholic acid (wt/vol), 1% Triton X-100 (wt/vol), 0.1% […] (wt/vol) and 1 mM PMSF, as well as 5 μg/ml each of protease inhibitors, pepstatin, leupeptin, chymostatin, antipain, and aprotinin. Then the cell lysates were centrifuged for 20 minutes at 15,000 g at 4° C. The supernatants were separated by 4-20% SDS-PAGE for 2 hours at 120 V using precast Tris-glycine gels and a Mini-Cell gel apparatus (Novex, San Diego, Calif.). Separated proteins were electrophoretically transferred to a nitrocellulose membrane for 2 hours at 30 V using a Novex Blot Module (Novex, San Diego, Calif.). Nonspecific binding was blocked by 1 hour incubation of nitrocellulose membranes in 5% (wt/vol) nonfat dry milk in Tris-buffered saline (TBS; pH 7.5). Blots were then incubated overnight at 4° C. with rabbit polyclonal antibody against poly (ADP-ribose) polymerase (PARP) (Santa Cruz Biotechnology, Santa Cruz, Calif.) (1;3,000) in an antibody buffer comprising (1% (wt/vol) non-fat dry milk in TTBS (0.05% vol/vol) Tween-20 in TBS), washed 3 times with TTBS and finally incubated for 1 hour with a peroxidase-labeled secondary antibody in the antibody buffer. Blots were developed for visualization using ECL detection kit. To test for equal protein loading, the blots were stripped and re-probed with an antibody against tubulin. When processing of a protein was measured, a decrease in unprocessed full-length form was measured concomitantly with the increase in the cleaved, active form. The experiment was repeated 3 times with similar results.

PARP [5] = assay: PARP proteolysis (Western blot); type: cell-based, rat; conditions: BSp73AS, 6 hours, 50 μM inhibitor
Description: as §1

caspase-3 = assay: Caspase-3 (DEVDase) activity, fluorogenic assay with DEVD-AMC; type: cell-based, human; conditions: Mia PACA-2, 24 hours; Z-VAD FMK 50 μM (FIG. 12B)
Description: To determine whether a polyphenolic compound activates caspase-3 activity in a time-dependent manner, the following assay was conducted. BSp73AS cells were cultured for 0, 1, 3, and 6 hours and Mia PACA-2 cells were cultured in the absence of serum or growth factors for 0, 1, 4, 6, and 24 hours in the presence of 100 μM or quercetin, trans-resveratrol, rutin, or control. Caspase-3 activity was measured in cell lysates with a fluorogenic assay using DEVD-AMC as a substrate. The results were normalized to the DEVDase activity in untreated cells.
A fluorimetric assay for caspase-3 activity was conducted. […] Cytosolic protein extracts (supernatants) were collected, protein concentrations were determined and the extracts were aliquoted and stored at −80° C. […] The reaction was started by addition of caspase-3 substrate, the readings were taken at 0, 60, 90, and 120 minutes. Fluorescence was calibrated using a standard curve for AMC. The data were expressed as mol AMC/mg protein/min.
Mia PACA-2 cells were cultured in the absence of serum or growth factors for 24 hours in the presence or absence of quercetin (100 μM), trans-resveratrol (100 μM), Z-VAD FMK (50 μM), cyclosporin A (5 μM) and/or aristolochic acid (50 μM). […] The reaction was started by addition of caspase-3 substrate, the readings were taken at 0, 60, 90, and 120 minutes. Fluorescence was calibrated using a standard curve for AMC. […] The data were expressed as mol AMC/mg protein/min. […]

cytochrome c = assay: Mitochondrial cytochrome c release (Western blot); type: cell-based, human; conditions: Mia PACA-2, 24 hours, Z-VAD FMK 50 μM
Description: In order to determine the effects polyphenolic compounds have on mitochondrial cytochrome c release and apoptosis, the following assay was conducted. BSp73AS cells were cultured for 6 hours and Mia PACA-2 cells were cultured in the absence of serum or growth factors for 24 hours in the absence or presence of 100 μM of each rutin, trans-resveratrol, genistein, or quercetin. Cells were washed twice with ice-cold PBS, pH 7.2 and resuspended in extraction buffer, about 500 μl, comprising 20 mM HEPES-KOH (pH 7.0), 10 mM KCl, 1 mM NaEGTA, 2 mM MgCl2, 1 mM EDTA, 1 mM DTT, 250 mM sucrose, 1 mM PMSF and protease inhibitors cocktail as provided above. The lysate was incubated for 30 minutes on ice and then homogenized using a glass dounce (80 strokes). Nuclei were removed by centrifugation at 1,000 g for 10 minutes at 4° C. Supernatant was additionally centrifuged for 1 hour at 100,000 g and the resulting supernatant (cytosolic fraction) and pellet (mitochondrial fraction) were collected separately, subjected to SDS-PAGE, and Western blotting using an antibody against cytochrome c. The experiment was repeated twice with similar results.
In order to determine the role of the cancer cell's PTP in the effects of the polyphenolic compounds on mitochondrial function, caspase-3 activation and apoptosis, we performed the following experiments. Mia PACA-2 cells were cultured in the absence of serum or growth factors for 24 hours in the presence or absence of quercetin (100 μM), trans-resveratrol (100 μM), Z-VAD FMK (50 μM), cyclosporin A (5 μM) and/or aristolochic acid (50 μM). Cells were collected, washed with ice-cold PBS and resuspended in lysis buffer comprising 0.5% Nonidet P-40 or manufactured by the name IGEPAL CA-630, 0.5 mM EDTA, 150 mM NaCl and 50 mM Tris at pH 7.5. Cell lysates were placed for 30 minutes on a rotator at 4° C. and then centrifuged for 15 minutes at 15,000 g. Cytosolic protein extracts (supernatants) were collected, protein concentrations were determined and the extracts were aliquoted and stored at −80° C. Cytosolic extracts were subjected to SDS-PAGE and Western blot was performed with an antibody against cytochrome c. Blots were then stripped and re-probed with an antibody against tubulin to confirm equal protein loading. The experiment was repeated twice with similar results.
In order to determine the effect of a combination of trans-resveratrol and quercetin on cytochrome c release and caspase-3 activity, the following was conducted. Mia PACA-2 cells were cultured in the absence of serum or growth factors for 24 hours in the presence or absence of trans-resveratrol (25 μM), quercetin (25 μM), or the combination of trans-resveratrol (25 μM) and quercetin (25 μM). Cytosolic extracts were prepared and subject to SDS-PAGE followed by protein transfer. Immunoblot was performed with an antibody against tubulin to confirm equal protein loading.

## c1ccc2c(c1)[I+]c1ccccc1-2 [DPI, diphenylene iodonium, reference compound]
Mia PACA-2 cells [1]
  mitochondrial membrane potential: markedly depolarized the mitochondrial membrane
Mia PACA-2 cells [2]; DPI 15 μM, Tiron 10 mM, genistein 100 μM, trans-resveratrol 100 or 50 μM
  oligonucleosomal DNA fragmentation (apoptosis): either no or small effects
Mia PACA-2 cells [3]
  increase in ROS production caused by trans-resveratrol and genistein, effect of DPI: prevented
NF-κB
  NF-κB activation caused by serum: not inhibited

## O=S(=O)(O)c1cc(O)c(O)c(S(=O)(=O)O)c1 [Tiron, reference compound]
Mia PACA-2 cells [1]
  mitochondrial membrane potential: markedly depolarized the mitochondrial membrane

## COC(=O)C[C@H](NC(=O)[C@H](C)NC(=O)[C@@H](NC(=O)OCc1ccccc1)C(C)C)C(=O)CF [Z-VAD, reference compound] (Cbz-Val-Ala-Asp(OMe)-CH2F)
Mia PACA-2 cells [2]; Z-VAD 100 μM
  apoptosis (DNA fragmentation) caused by combinations of ROS inhibitor and polyphenolic compound, effect of Z-VAD: inhibits apoptosis caused by the combinations
PARP [4]
  PARP cleavage by quercetin and trans-resveratrol in the presence of caspase inhibitor: cleavage did not occur
PARP [5]
  PARP cleavage by quercetin and trans-resveratrol in the presence of caspase inhibitor: cleavage did not occur
caspase-3
  caspase activity in cells treated with polyphenolic compounds, effect of Z-VAD: blocked caspase activity
Cytochrome c; no serum
  release of cytochrome c into the cytoplasm in control (untreated) cells: inhibited the release of cytochrome c
Cytochrome c; polyphenol 100 μM
  cytosolic cytochrome c release caused by quercetin or trans-resveratrol: had no effect
